“And” between values parts separate entries of the source, which are not always exact repeats. Identical values can stand only once.
Experiments:
[1] = tested on: mice, spared nerve injury (SNI) model; assay: Ultrasonic vocalisation (USV) recordings at 37 kHz, SNI mice; format: in vivo, mouse; conditions: for Ultrasonic vocalisations, individual animals (Fig 5E): SNI mice
Procedure: Time spent in each compartment was […]
compartment was used to define three even groups.
Conditioning (DAY 2-9): Mice were injected s.c. with PBS, morphine (10 mg/kg) (RH Pharmacy, Denmark, Vnr. 475249), or 10 μmol/kg mPD5 immediately before being placed in and confined to the appropriate compartment for 40 min. Drug was paired to the least-preferred compartment, conditioning was alternated so that mice were never placed in the same compartment two days in a row, and the day on which they were exposed to drug was […]
Preference test (DAY 10): Mice were allowed to freely move between the two compartments […]
Ultrasonic vocalisation (USV) recordings.
Mice were left in Med-Associates square behavioral chambers (27 cm x 27 cm) to freely roam around for 60 min, four days in a row. […] On day three, both control and SNI mice were placed directly in the chambers and recorded for 60 min. On day four, control mice were injected s.c. with PBS, and SNI mice were injected with either 10 μmol/kg mPD5 or PBS immediately before being placed in the chambers and recorded for 60 min. The recordings were analyzed using the Avisoft SASLab Pro software (Version 5.02.07, Avisoft Bioacoustics) as described in (12), applying a fast fourier transformation (FFT) (1024 FTT length, 100% frame size, Blackman window, and 87.5% time window overlap). […]
To compare pain-relevant vocalizations, only short and constant USVs of 37 kHz were counted […]
Mice were pretreated with 10 μmol/kg mPD5, 10 mg/kg morphine (RH Pharmacy, Denmark, Vnr. 475249), or PBS 45 min before habituation to observation container (glass cylinder surrounded by mirrors on 2 sides) for 15 min. […] Mice were recorded for three min after i.pl. injection with capsaicin and euthanized the same day. Mice were scored manually for the amount of time spent paw licking within three min after capsaicin administration. […]

[2] = tested on: mice, spared nerve injury (SNI) model; assay: SNI model 18 weeks after surgery, von Frey, sustained s.c. administration; format: in vivo, mouse; set-up: von Frey threshold, Fig 7C, individual mice: unit not given here; conditions: for duration of effect on mechanical hypersensitivity: SNI 18 weeks after surgery
Procedure: Repeated and sustained administration of mPD5 in the SNI model. […]
For the first experiment with sustained administration of mPD5 (Figure 7C), the mice underwent a baseline von Frey reading as described in the “Mechanically-evoked pain (von Frey).”-section and SNI surgery as described in “Induction of neuropathic pain (SNI model).”-section. Approximately 18 weeks (125 days) after SNI surgery, hyperalgesia was confirmed with von Frey. On the same day, mice were injected s.c. with 10 μmol/kg mPD5 and evoked pain was tested again at 1 hour after injection. Then, mice were injected s.c. with either 2+2+2 μmol/kg mPD5 (group A) or PBS (group B) once an hour for 3 hours. At 4,5 hours after the 10 μmol/kg mPD5 injection paw withdrawal threshold was measured again followed by a s.c. injection of 2 μmol/kg mPD5 in all animals. The PWT was measured again at 6 hours +7 hours + 8 hours + 9 hours + 10 hours + 11 hours + 22 hours + 23 hours + 25 hours + 27 hours + 49 hours + 121 hours after the initial 10 μmol/kg mPD5 injection performed on day 125. […]

Q: Which “Ultrasonic vocalisations, individual animals (Fig 5E)” value ([1]; Baseline) does the source give for `CCCCCCCCCCCCCC(=O)N(CCOCCOCCC(=O)N[C@@H](Cc1c[nH]cn1)C(=O)N[C@@H](Cc1c[nH]c2ccccc12)C(=O)N[C@@H](CC(C)C)C(=O)N[C@@H](CCCCN)C(=O)N[C@H](C(=O)O)C(C)C)CCOCCOCCC(=O)N[C@@H](Cc1c[nH]cn1)C(=O)N[C@@H](Cc1c[nH]c2ccccc12)C(=O)N[C@@H](CC(C)C)C(=O)N[C@@H](CCCCN)C(=O)N[C@H](C(=O)O)C(C)C` [mPD5, myristoyl-NPEG4-(HWLKV)2] here?
A: 4 and 10 and 8 and 9 and 7 and 5

Q: What about the “Ultrasonic vocalisations, individual animals (Fig 5E)” value ([1]; min 60-120 post injection) of the same molecule?
A: 3 and 8 and 1 and 7

Q: What about the “effect on SNI-induced increase of vocalizations at 37 kHz” value ([1]; SNI, female mice, s.c. 10 μmol/kg, to the level of the naive mice) of the same molecule?
A: fully reversed

Q: What about the “von Frey threshold, contralateral paw, Fig 7C, individual mice” value (from here on “von Frey threshold, contralateral paw”) ([2]; A-contra, time 9 post første inj og time 4 post sidste inj) of the same molecule?
A: 1.4 (3×) and 1 (5×)

Q: And the “von Frey threshold, contralateral paw” value ([2]; A-contra, time 10 post første inj og time 5 post sidste inj)?
A: 1 (4×) and 1.4 (3×) and 0.6

Q: And the “von Frey threshold, contralateral paw” value ([2]; A-contra, time 11 post første inj og time 6 post sidste inj)?
A: 1.4 (2×) and 2 (2×) and 1 (4×)

Q: And the “von Frey threshold, contralateral paw” value ([2]; A-contra, time 22 post første inj og time 17 post sidste inj)?
A: 1.4 (4×) and 0.6 and 1 (3×)

Q: And the “von Frey threshold, contralateral paw” value ([2]; A-contra, time 23 post første inj og time 18 post sidste inj)?
A: 1.4 (6×) and 0.6 and 1

Q: What about the “von Frey threshold, contralateral paw” value ([2]; A-contra, time 25 post første inj og time 20 post sidste inj) of the same molecule?
A: 1 (7×) and 1.4

Q: What about the “von Frey threshold, contralateral paw” value ([2]; A-contra, time 27 post første inj og time 22 post sidste inj) of the same molecule?
A: 1.4 (3×) and 1

Q: And the “von Frey threshold, contralateral paw” value ([2]; B-contra, time 9 post første inj og time 4 post sidste inj)?
A: 1 (4×) and 1.4 (3×) and 2

Q: And the “von Frey threshold, contralateral paw” value ([2]; B-contra, time 10 post første inj og time 5 post sidste inj)?
A: 1.4 (4×) and 2 (2×) and 1 (2×)

Q: What about the “von Frey threshold, contralateral paw” value ([2]; B-contra, time 11 post første inj og time 6 post sidste inj) of the same molecule?
A: 1 (2×) and 2 (2×) and 1.4 (4×)

Q: What about the “von Frey threshold, contralateral paw” value ([2]; B-contra, time 22 post første inj og time 17 post sidste inj) of the same molecule?
A: 1.4 (3×) and 1 (2×) and 2 (3×)

Q: What about the “von Frey threshold, contralateral paw” value ([2]; B-contra, time 23 post første inj og time 18 post sidste inj) of the same molecule?
A: 1 (2×) and 2 (3×) and 1.4 (2×) and 0.6

Q: What about the “von Frey threshold, contralateral paw” value ([2]; B-contra, time 25 post første inj og time 20 post sidste inj) of the same molecule?
A: 1.4 (5×) and 1 and 2 and 0.6

Q: What about the “duration of effect on mechanical hypersensitivity” value ([2]; 10 + 2 + 2 + 2 + 2 μmol/kg s.c., 1 hour between injections (Group A), from first injection) of the same molecule?
A: 25 h

Q: What about the “duration of effect on mechanical hypersensitivity” value ([2]; without consecutive administration (reference, 10 + 0 + 0 + 0 + 2 μmol/kg)) of the same molecule?
A: 1 h

Q: What about the “von Frey threshold, Fig 7C, individual mice” value (“von Frey threshold, Fig 7C” below) ([2]; group A, time 9 post første inj og time 4 post sidste inj) of the same molecule?
A: 2 and 1.4 and 0.6 and 0.4 (2×) and 1 (3×)

Q: And the “von Frey threshold, Fig 7C” value ([2]; group A, time 10 post første inj og time 5 post sidste inj)?
A: 1.4 (2×) and 2 and 0.4 (3×) and 0.6 and 1

Q: And the “von Frey threshold, Fig 7C” value ([2]; group A, time 11 post første inj og time 6 post sidste inj)?
A: 1.4 and 1 (3×) and 0.16 and 0.4 and 0.6 (2×)

Q: What about the “von Frey threshold, Fig 7C” value ([2]; group A, time 22 post første inj og time 17 post sidste inj) of the same molecule?
A: 0.6 (2×) and 1 (2×) and 0.16 (2×) and 0.4 and 1.4

Q: And the “von Frey threshold, Fig 7C” value ([2]; group A, time 23 post første inj og time 18 post sidste inj)?
A: 1.4 and 0.6 (2×) and 0.16 and 0.07 (2×) and 1 and 0.4

Q: And the “von Frey threshold, Fig 7C” value ([2]; group A, time 25 post første inj og time 20 post sidste inj)?
A: 0.16 (2×) and 2 and 0.6 (3×) and 0.4 and 1.4

Q: And the “von Frey threshold, Fig 7C” value ([2]; group A, time 27 post første inj og time 22 post sidste inj)?
A: 0.4

Q: And the “von Frey threshold, Fig 7C” value ([2]; group B, time 9 post første inj og time 4 post sidste inj)?
A: 1 and 0.4 (3×) and 0.07 (2×) and 0.6 and 0.16

Q: What about the “von Frey threshold, Fig 7C” value ([2]; group B, time 10 post første inj og time 5 post sidste inj) of the same molecule?
A: 0.4 (3×) and 0.16 (2×) and 0.07 (3×)

Q: What about the “von Frey threshold, Fig 7C” value ([2]; group B, time 11 post første inj og time 6 post sidste inj) of the same molecule?
A: 0.4 (2×) and 0.16 (3×) and 0.07 (3×)

Q: What about the “von Frey threshold, Fig 7C” value ([2]; group B, time 22 post første inj og time 17 post sidste inj) of the same molecule?
A: 0.16 (5×) and 0.07 (3×)

Q: And the “von Frey threshold, Fig 7C” value ([2]; group B, time 23 post første inj og time 18 post sidste inj)?
A: 0.16 (3×) and 0.4 (2×) and 0.07 (3×)

Q: And the “von Frey threshold, Fig 7C” value ([2]; group B, time 25 post første inj og time 20 post sidste inj)?
A: 0.6 and 0.16 (4×) and 0.4 and 0.07 (2×)

Q: What about the “von Frey threshold, Fig 7C” value ([2]; group B, time 27 post første inj og time 22 post sidste inj) of the same molecule?
A: 0.6 and 0.07 and 0.16
